Read-outs that look alike come from different tables or passages of the source.
Tested on: test plant species in Direct Seeded Rice
Assay: Postemergence herbicidal activity in direct seeded rice (Table 13)
Type: in vivo
Details: for GR50 BRAPP / GR80 BRAPP / GR50 CYPSS / GR80 CYPSS / GR50 ECHSS / GR80 ECHSS / GR50 LEFSS / GR80 LEFSS / GR20 ORYSS / GR50 SCPJU / GR80 SCPJU / GR50 SEBEX / GR80 SEBEX: probit analysis; for GR20 ORYSS: ORYSS: Oryza sativa (crop); for pest or weed control at 35 g/ha / pest or weed control at 70 g/ha: post-emergence, 504 h; for pest or weed control at 35 g/ha: 35 g ai/ha; for pest or weed control at 70 g/ha: 70 g ai/ha
Outline: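 Greenhouse-grown plants at the second or third true leaf stage were sprayed postemergence at 187 L/ha with compound in acetone/DMSO (final 16.2%/0.5%) plus aqueous Agri-dex crop oil concentrate; controls got solvent blank. Injury was rated visually 0–100% after 20-22 days, and GR20, GR50, GR80 and GR90 derived by probit analysis.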

[1] = BRAPP: broadleaf signalgrass, Brachiaria platyphylla
[2] = CYPSS: sedge (Cyperus difformis, esculentus, iria)
[3] = ECHSS: barnyardgrass (Echinochloa crus-galli), junglerice (Echinochloa colonum)
[4] = LEFSS: sprangletop (Leptochloa chinensis, Leptochloa dubia)
[5] = SCPJU: Japanese bulrush, Scirpus juncoides
[6] = SEBEX: hemp sesbania, Sesbania exaltata
[7] = BRAPP: broadleaf signalgrass, Brachiaria platyphylla, read-out: Visual Growth Reduction (%) 21 Days After Application BRAPP
[8] = CYPSS: sedge (Cyperus difformis, esculentus, iria), read-out: Visual Growth Reduction (%) 21 Days After Application CYPSS
[9] = ECHSS: barnyardgrass (Echinochloa crus-galli), junglerice (Echinochloa colonum), read-out: Visual Growth Reduction (%) 21 Days After Application ECHSS
[10] = LEFSS: sprangletop (Leptochloa chinensis, Leptochloa dubia), read-out: Visual Growth Reduction (%) 21 Days After Application LEFSS
[11] = ORYSS: Oryza sativa, read-out: Visual Growth Reduction (%) 21 Days After Application ORYSS
[12] = SCPJU: Japanese bulrush, Scirpus juncoides, read-out: Visual Growth Reduction (%) 21 Days After Application SCPJU
[13] = SEBEX: hemp sesbania, Sesbania exaltata, read-out: Visual Growth Reduction (%) 21 Days After Application SEBEX

In the case of `COc1c(N)nc(-c2ccc(Br)c(F)c2F)nc1C(=O)O` [Compound 8], the “GR50 BRAPP” value [1] is reported as 4 g ai/ha, the “GR80 BRAPP” value [1] is reported as 9 g ai/ha and the “GR50 CYPSS” value [2] is reported as 1 g ai/ha. The “GR80 CYPSS” value [2] was 1 g ai/ha, the “GR50 ECHSS” value [3] was 2 g ai/ha and the “GR80 ECHSS” value [3] was 6 g ai/ha. For the same compound, the “GR50 LEFSS” value [4] was over 70 g ai/ha, the “GR80 LEFSS” value [4] was over 70 g ai/ha and the “GR20 ORYSS” value was 2 g ai/ha. The “GR50 SCPJU” value [5] was 1 g ai/ha, the “GR80 SCPJU” value [5] was 1 g ai/ha and the “GR50 SEBEX” value [6] was 3 g ai/ha. For the same compound, the “GR80 SEBEX” value [6] was 5 g ai/ha, the pest or weed control at 35 g/ha [7] was 95 to 100% and the pest or weed control at 70 g/ha [7] was 95 to 100%. It also gave a pest or weed control at 35 g/ha [8] of 95 to 100%, a pest or weed control at 70 g/ha [8] of 95 to 100% and a pest or weed control at 35 g/ha [9] of 95 to 100%. For the same compound, the pest or weed control at 70 g/ha [9] was 95 to 100%, the pest or weed control at 35 g/ha [10] was 0 to 29% and the pest or weed control at 70 g/ha [10] was 30 to 44%. For the same compound, the pest or weed control at 35 g/ha [11] was 75 to 84%, the pest or weed control at 70 g/ha [11] was 85 to 94% and the pest or weed control at 35 g/ha [12] was 95 to 100%. For the same compound, the pest or weed control at 70 g/ha [12] was 95 to 100%, the pest or weed control at 35 g/ha [13] was 95 to 100% and the pest or weed control at 70 g/ha [13] was 95 to 100%.

In the case of `COC(=O)c1nc(-c2ccc(Br)c(F)c2F)nc(N)c1OC` [Compound 122, methyl 6-amino-2-(4-bromo-2,3-difluorophenyl)-5-methoxypyrimidine-4-carboxylate], the “GR50 BRAPP” value [1] is reported as 5 g ai/ha, the “GR80 BRAPP” value [1] is reported as 42 g ai/ha and the “GR50 CYPSS” value [2] is reported as 1 g ai/ha. The “GR80 CYPSS” value [2] was 1 g ai/ha, the “GR50 ECHSS” value [3] was 6 g ai/ha and the “GR80 ECHSS” value [3] was 47 g ai/ha. The “GR50 LEFSS” value [4] was over 70 g ai/ha, the “GR80 LEFSS” value [4] was over 70 g ai/ha and the “GR20 ORYSS” value was 70 g ai/ha. For the same compound, the “GR50 SCPJU” value [5] was 1 g ai/ha, the “GR80 SCPJU” value [5] was 1 g ai/ha and the “GR50 SEBEX” value [6] was 1 g ai/ha. For the same compound, the “GR80 SEBEX” value [6] was 1 g ai/ha, the pest or weed control at 35 g/ha [7] was 75 to 84% and the pest or weed control at 70 g/ha [7] was 85 to 94%. It also gave a pest or weed control at 35 g/ha [8] of 95 to 100%, a pest or weed control at 70 g/ha [8] of 95 to 100% and a pest or weed control at 35 g/ha [9] of 75 to 84%. For the same compound, the pest or weed control at 70 g/ha [9] was 85 to 94%, the pest or weed control at 35 g/ha [10] was 0 to 29% and the pest or weed control at 70 g/ha [10] was 0 to 29%. The pest or weed control at 35 g/ha [11] was 0 to 29%, the pest or weed control at 70 g/ha [11] was 0 to 29% and the pest or weed control at 35 g/ha [12] was 95 to 100%. The pest or weed control at 70 g/ha [12] was 95 to 100%, the pest or weed control at 35 g/ha [13] was 95 to 100% and the pest or weed control at 70 g/ha [13] was 95 to 100%.

`Nc1c(F)c(-c2ccc(C(F)(F)F)c(F)c2)nc(C(=O)O)c1Cl` [Compound 134] was tested, and the “GR50 BRAPP” value [1] was 3 g ai/ha, the “GR80 BRAPP” value [1] was 12 g ai/ha and the “GR50 CYPSS” value [2] was 6 g ai/ha. The “GR80 CYPSS” value [2] was 13 g ai/ha, the “GR50 ECHSS” value [3] was 1 g ai/ha and the “GR80 ECHSS” value [3] was 1 g ai/ha. The “GR50 LEFSS” value [4] was 6 g ai/ha, the “GR80 LEFSS” value [4] was 15 g ai/ha and the “GR20 ORYSS” value was 5 g ai/ha. For the same compound, the “GR50 SCPJU” value [5] was 1 g ai/ha, the “GR80 SCPJU” value [5] was 1 g ai/ha and the “GR50 SEBEX” value [6] was 1 g ai/ha. For the same compound, the “GR80 SEBEX” value [6] was 1 g ai/ha, the pest or weed control at 35 g/ha [7] was 95 to 100% and the pest or weed control at 70 g/ha [7] was 95 to 100%. For the same compound, the pest or weed control at 35 g/ha [8] was 95 to 100%, the pest or weed control at 70 g/ha [8] was 95 to 100% and the pest or weed control at 35 g/ha [9] was 95 to 100%. The pest or weed control at 70 g/ha [9] was 95 to 100%, the pest or weed control at 35 g/ha [10] was 95 to 100% and the pest or weed control at 70 g/ha [10] was 95 to 100%. For the same compound, the pest or weed control at 35 g/ha [11] was 60 to 74%, the pest or weed control at 70 g/ha [11] was 85 to 94% and the pest or weed control at 70 g/ha [12] was 95 to 100%. The pest or weed control at 35 g/ha [13] was 95 to 100% and the pest or weed control at 70 g/ha [13] was 95 to 100%.

`COC(=O)c1nc(-c2ccc(C(F)(F)F)c(F)c2)c(F)c(N)c1Cl` [Compound 165] was tested, and the “GR50 BRAPP” value [1] was 12 g ai/ha, the “GR80 BRAPP” value [1] was 27 g ai/ha and the “GR50 CYPSS” value [2] was 19 g ai/ha. The “GR80 CYPSS” value [2] was 67 g ai/ha, the “GR50 ECHSS” value [3] was 10 g ai/ha and the “GR80 ECHSS” value [3] was 24 g ai/ha. For the same compound, the “GR50 LEFSS” value [4] was 24 g ai/ha, the “GR80 LEFSS” value [4] was 56 g ai/ha and the “GR20 ORYSS” value was 44 g ai/ha. The “GR50 SEBEX” value [6] was 1 g ai/ha, the “GR80 SEBEX” value [6] was 1 g ai/ha and the pest or weed control at 35 g/ha [7] was 85 to 94%. The pest or weed control at 70 g/ha [7] was 95 to 100%, the pest or weed control at 35 g/ha [8] was 75 to 84% and the pest or weed control at 70 g/ha [8] was 75 to 84%. The pest or weed control at 35 g/ha [9] was 85 to 94%, the pest or weed control at 70 g/ha [9] was 95 to 100% and the pest or weed control at 35 g/ha [10] was 0 to 29%. It also gave a pest or weed control at 70 g/ha [10] of 95 to 100%, a pest or weed control at 35 g/ha [11] of 0 to 29% and a pest or weed control at 70 g/ha [11] of 30 to 44%. The pest or weed control at 35 g/ha [13] was 95 to 100% and the pest or weed control at 70 g/ha [13] was 95 to 100%.

`Nc1c(F)c(-c2ccc(Cl)c(F)c2)nc(C(=O)O)c1Cl` [Compound 217] was tested, and the “GR50 BRAPP” value [1] was 3 g ai/ha, the “GR80 BRAPP” value [1] was 5 g ai/ha and the “GR50 CYPSS” value [2] was 5 g ai/ha. The “GR80 CYPSS” value [2] was 11 g ai/ha, the “GR50 ECHSS” value [3] was 1 g ai/ha and the “GR80 ECHSS” value [3] was 1 g ai/ha. For the same compound, the “GR50 LEFSS” value [4] was 1 g ai/ha, the “GR80 LEFSS” value [4] was 3 g ai/ha and the “GR20 ORYSS” value was 10 g ai/ha. The “GR50 SCPJU” value [5] was 1 g ai/ha, the “GR80 SCPJU” value [5] was 1 g ai/ha and the “GR50 SEBEX” value [6] was 1 g ai/ha. For the same compound, the “GR80 SEBEX” value [6] was 1 g ai/ha, the pest or weed control at 35 g/ha [7] was 95 to 100% and the pest or weed control at 70 g/ha [7] was 95 to 100%. For the same compound, the pest or weed control at 35 g/ha [8] was 95 to 100%, the pest or weed control at 70 g/ha [8] was 95 to 100% and the pest or weed control at 35 g/ha [9] was 95 to 100%. The pest or weed control at 70 g/ha [9] was 95 to 100%, the pest or weed control at 35 g/ha [10] was 95 to 100% and the pest or weed control at 70 g/ha [10] was 95 to 100%. The pest or weed control at 35 g/ha [11] was 45 to 59%, the pest or weed control at 70 g/ha [11] was 75 to 84% and the pest or weed control at 35 g/ha [12] was 95 to 100%. For the same compound, the pest or weed control at 70 g/ha [12] was 95 to 100%, the pest or weed control at 35 g/ha [13] was 95 to 100% and the pest or weed control at 70 g/ha [13] was 95 to 100%.

— patent US9113629B2, “4-amino-6-(4-substituted-phenyl)-picolinates and 6-amino-2-(4-substituted-phenyl)-pyrimidine-4-carboxylates and their use as herbicides” (DOW AGROSCIENCES LLC, priority 2013, dated 2015)
